Data taken from patent US20110112299A1, “TETRACYCLIC COMPOUND” (KYOWA HAKKO KIRIN CO., LTD., priority 2008, published 2011).

Columns and labels:
[1] = test system: IL-1β induced IL-6 production (A549 cells); test: Inhibition assay for IL-1β induced IL-6 production in A549 cells (Test Example 3); assay type: cell-based, human; conditions: at a concentration of 100 nmol/L, IL-1β stimulation, relative to dexamethasone
Description: A549 cells cultured in F-12 medium supplemented with 10% bovine serum for 3 to 5 days were transferred to a 96-well plate (50000 cells/well) and then were cultured overnight. […] After the medium was removed by suction, 60 μL of F-12 medium was added to each well, and 20 μL of the test compound diluted to 5-fold of the desired concentration with F-12 medium or 20 μL of 4 μmol/L dexamethasone was added thereto. The test compound and the dexamethasone used here were prepared beforehand by dissolving in dimethyl sulfoxide (DMSO) and diluting with F-12 medium so that the final concentration of DMSO became 0.1% v/v or lower. After 30-minute incubation under 5% CO2 atmosphere at 37° C., 20 μL of 4 nmol/L IL-1β diluted with F-12 medium was added to each well, and then incubation was performed under a 5% CO2 atmosphere at 37° C. for 12 to 18 hours. The 96-well plate was centrifuged at 300×g at 4° C. for 5 minutes, and then the culture supernatant was collected for use as a sample for IL-6 measurement. The IL-6 produced in the culture supernatant was quantified by the ELISA method (R&D Systems, product number: DY206, DouSet ELISA Development System Human IL-6), and the production inhibition rate was calculated by the following formula. […]

[2] = test system: transcription-promoting activity via the glucocorticoid receptor (A549/MMTV-LTR cells); assay type: cell-based; conditions: at a concentration of 300 nmol/L; relative to dexamethasone
Description: A pGL4.14 plasmid (Promega, product number: AY864928) having a cloned MMTV-LTR fragment upstream of the luciferase gene (−200 to +100 relative to the transcription initiation site) was introduced into A549 cells, and the obtained strain which is constitutively resistant to a selective antibiotic hygromycin B (A549/MMTV-LTR) was used for evaluation. The A549/MMTV-LTR cells were transferred to a 96-well plate (25000 cells/well) and were cultured overnight. […] Next, 20 μL of the test compound diluted to 5-fold of the desired concentration with F-12 medium or 20 μL of 4 μmol/L dexamethasone was added thereto, and the mixture was incubated under 5% CO2 at 37° C. for 6 hours. To each well, 50 μL of a luminescence reagent (Promega, product number: E2550 or E2650) was added, and the mixture was stirred to dissolve the cells, and the luciferase activity was measured by a plate reader (PerkinElmer, TopCount).
MMTV activity (%)=100×(luminescence amount in the presence of the compound−luminescence amount in the absence of the compound)/(luminescence amount in the presence of dexamethasone−luminescence amount in the absence of the compound)

[3] = molecular target: T1, recombinant human progesterone receptor (Homo sapiens, UniProt P06401); test: Human progesterone receptor assay (fluorescence polarization, Test Example 2); assay type: binding; conditions: at a concentration of 1000 nmol/L
T1 construct: purchased Panvera/Invitrogen P2899 (kit P2895)
T1 sequence (P06401 675-933 limits assumed): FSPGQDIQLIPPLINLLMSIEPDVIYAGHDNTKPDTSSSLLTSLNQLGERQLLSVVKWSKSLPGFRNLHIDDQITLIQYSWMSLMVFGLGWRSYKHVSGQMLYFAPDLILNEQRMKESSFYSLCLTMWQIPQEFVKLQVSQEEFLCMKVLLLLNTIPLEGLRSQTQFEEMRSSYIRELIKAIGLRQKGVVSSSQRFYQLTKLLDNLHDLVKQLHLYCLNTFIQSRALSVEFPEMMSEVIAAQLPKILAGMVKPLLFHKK
Description: In this assay, a fluorescence polarization assay kit (Panvera/Invitrogen, product number: P2895) was used. The recombinant human progesterone receptor (product number: P2899), the Fluoromore (trademark)-labeled progesterone (PL Green, product number: P2897), and the basic buffer solution (product number: P2901) which were used in the assay kit had been stored at −80° C. until used. A buffer solution for the assay was prepared by adding 250 fold dilution of 1 mol/L DTT to the basic buffer solution to give a final concentration of 4 mmol/L.
The assay was performed as follows. The test compound was diluted to 2-fold of the desired concentration with the buffer solution for the assay, and 16 μL of that was added to each well. […] The fluorescence polarization value of each well was measured using a plate reader (PerkinElmer, Fusion or Envision). […] To a positive control group, mifepristone (RU-486) was added so as to give a final concentration of 1 μmol/L. The progesterone receptor binding rate (%) was calculated by the following formula.
Progesterone receptor binding rate (%)=100×[1−(fluorescence polarization value of test compound solution−fluorescence polarization value of positive control solution)/(fluorescence polarization value of negative control solution−fluorescence polarization value of positive control solution)]

`CC/C(=C1\c2cc3cnn(C)c3cc2COc2ccccc21)c1cccc(NS(C)(=O)=O)c1` [Compound 2, (Z)-5-{1-[3-(methanesulfonamide)phenyl]propylidene}-1-methyl-5,11-dihydrobenzo[6,7]oxepino[4,3-f]indazole] was tested, and the “IL-6 production inhibitory activity” value [1] was no less than 80%, the MMTV activity [2] was no more than 10% and the “inhibitory activity (progesterone receptor binding rate)” value [3] was no more than 10%.
